Assay results reported in paper PMC5025651, “Reprofiled anthelmintics abate hypervirulent stationary-phase Clostridium difficile” (Scientific Reports, 2016).
Counter-ions that a name gives are not always drawn. Like-named read-outs stand apart in the source and are kept apart here.

Tests used:
P. nigrescens ATCC 33563 = experiment: MIC by broth microdilution; assay type: cell-based; settings: Prevotella nigrescens, ATCC33563
[1] = tested on: C. difficile isolate 20100422 (ribotype 054); experiment: MIC by broth microdilution; assay type: cell-based, Clostridium difficile; settings: Clostridioides difficile; isolate 20100422, ribotype 054; duplicate; read-out: MIC
[2] = tested on: B. longum subsp. longum Strain 44B; experiment: MIC by broth microdilution; assay type: cell-based; settings: Bifidobacterium longum; B. longum subsp. longum 44B; LSM broth, anaerobic; duplicate; read-out: MIC
C. difficile strain 4118 [3] = experiment: Time-kill kinetics against stationary-phase cultures; assay type: cell-based, Clostridium difficile; settings: 16× MIC (metronidazole 4 μg/mL, vancomycin 32 μg/mL), up to 24 h
Procedure: At t = 0, 3, 6 and 24 h, sample aliquots were withdrawn from the treated cultures and bacterial viability was scored by plating serial dilutions on BHIS agar plates. The agar plates were incubated in the anaerobic chamber for 20–24 h at 37 °C. Kinetic experiments were performed at least twice.

L. plantarum ATCC 8014 = experiment: MIC by broth microdilution; assay type: cell-based; settings: Lactiplantibacillus plantarum, ATCC8014; L. plantarum ATCC 8014; CAMHB with 5% laked horse blood, ~48 h; duplicate; read-out: MIC
[4] = tested on: L. johnsonii Strain 135-1-CHN; experiment: MIC by broth microdilution; assay type: cell-based; settings: Lactobacillus johnsonii, STRAIN1351CHN; L. johnsonii 135-1-CHN; CAMHB with 5% laked horse blood, ~48 h; duplicate; read-out: MIC
[5] = tested on: C. difficile isolate 20110742 (ribotype 002); experiment: MIC by broth microdilution; assay type: cell-based, Clostridium difficile; settings: Clostridioides difficile; isolate 20110742, ribotype 002; duplicate; read-out: MIC
S. epidermidis 1457 = experiment: MIC by broth microdilution; assay type: cell-based; settings: Staphylococcus epidermidis; S. epidermidis 1457; CAMHB, aerobic; duplicate; read-out: MIC
[6] = tested on: L. reuteri Strain CF48-3A; experiment: MIC by broth microdilution; assay type: cell-based, Lactobacillus reuteri; settings: Limosilactobacillus reuteri; L. reuteri CF48-3A; CAMHB with 5% laked horse blood, ~48 h; duplicate; read-out: MIC
[7] = tested on: C. difficile isolate 20111163 (ribotype 024); experiment: MIC by broth microdilution; assay type: cell-based, Clostridium difficile; settings: Clostridioides difficile; isolate 20111163, ribotype 024; duplicate; read-out: MIC
[8] = tested on: C. difficile isolate 20110566 (ribotype 020); experiment: MIC by broth microdilution; assay type: cell-based, Clostridium difficile; settings: Clostridioides difficile; isolate 20110566, ribotype 020; duplicate; read-out: MIC
[9] = tested on: B. fragilis Strain CL05T00C42; experiment: MIC by broth microdilution; assay type: cell-based; settings: Bacteroides fragilis
[10] = tested on: C. difficile isolate 20121412 (ribotype 047); experiment: MIC by broth microdilution; assay type: cell-based, Clostridium difficile; settings: Clostridioides difficile; isolate 20121412, ribotype 047; duplicate; read-out: MIC
[11] = tested on: C. difficile isolate 20110961 (ribotype A12); experiment: MIC by broth microdilution; assay type: cell-based, Clostridium difficile; settings: Clostridioides difficile; isolate 20110961, ribotype A12; duplicate; read-out: MIC
[12] = tested on: C. difficile isolate 20110869 (ribotype 001_072); experiment: MIC by broth microdilution; assay type: cell-based, Clostridium difficile; settings: Clostridioides difficile; isolate 20110869, ribotype 001_072; duplicate; read-out: MIC
[13] = tested on: C. difficile isolate 20120016 (ribotype 019); experiment: MIC by broth microdilution; assay type: cell-based, Clostridium difficile; settings: Clostridioides difficile; isolate 20120016, ribotype 019; duplicate; read-out: MIC
A. baumannii M2 = experiment: MIC by broth microdilution; assay type: cell-based; settings: Acinetobacter baumannii; A. baumannii M2; CAMHB, aerobic; duplicate; read-out: MIC
[14] = tested on: C. difficile isolate 20121190 (ribotype 126); experiment: MIC by broth microdilution; assay type: cell-based, Clostridium difficile; settings: Clostridioides difficile; isolate 20121190, ribotype 126; duplicate; read-out: MIC
P. distasonis ATCC 8503 = experiment: MIC by broth microdilution; assay type: cell-based; settings: Parabacteroides distasonis, ATCC8503
[15] = tested on: B. thetaiotaomicron ATCC 29148; experiment: microbe, parasite or virus in culture; assay type: cell-based; settings: Bacteroides thetaiotaomicron, ATCC29148
[16] = tested on: C. difficile strain 4118 (CD4118, ATCC BAA-1870, ribotype 027); experiment: MIC by broth microdilution; assay type: cell-based, Clostridium difficile; settings: BHIS broth, anaerobic, 20–24 h, n = 2
[17] = tested on: C. clostridioforme ATCC 25537; experiment: MIC by broth microdilution; assay type: cell-based, Clostridium clostridioforme; settings: Clostridium, ATCC25537; C. clostridioforme ATCC 25537; BHIS, anaerobic; duplicate; read-out: MIC
C. sporogenes ATCC 15579 = experiment: MIC by broth microdilution; assay type: cell-based; settings: Clostridium sporogenes, ATCC15579, BHIS, anaerobic, duplicate
[18] = tested on: C. difficile isolate 20110740 (ribotype 018); experiment: MIC by broth microdilution; assay type: cell-based, Clostridium difficile; settings: Clostridioides difficile; isolate 20110740, ribotype 018; duplicate; read-out: MIC
B. subtilis ATCC 6051 = experiment: MIC by broth microdilution; assay type: cell-based; settings: Bacillus subtilis, ATCC6051; B. subtilis ATCC 6051; CAMHB, aerobic; duplicate; read-out: MIC
[19] = tested on: C. difficile isolate 20110986 (ribotype 078); experiment: MIC by broth microdilution; assay type: cell-based, Clostridium difficile; settings: Clostridioides difficile; isolate 20110986, ribotype 078; duplicate; read-out: MIC
[20] = tested on: C. difficile isolate 20110960 (ribotype 017); experiment: MIC by broth microdilution; assay type: cell-based, Clostridium difficile; settings: Clostridioides difficile; isolate 20110960, ribotype 017; duplicate; read-out: MIC
[21] = tested on: B. breve Strain EX336960VC19; experiment: MIC by broth microdilution; assay type: cell-based; settings: Bifidobacterium breve; B. breve EX336960VC19; LSM broth, anaerobic; duplicate; read-out: MIC
C. difficile strain 4118 [22] = experiment: Minimum bactericidal concentration (MBC), logarithmic- and stationary-phase cells; assay type: cell-based, Clostridium difficile
Procedure: The procedure for MBC determination was adapted from that of Alam et al.[44]. Briefly, a single overnight colony of C. difficile strain 4118 (streaked onto blood agar plate) was suspended in BHIS and grown to OD600 ~ 0.4–0.5 (logarithmic phase) or for 24 h (stationary phase). In 96-well microtiter plates, cultures were added to two-fold serial dilutions of test compounds in BHIS and incubated for 20–24 h at 37 °C in an anaerobic chamber. […] MBC measurements were performed in duplicate.

P. aeruginosa PAO1 = experiment: MIC by broth microdilution; assay type: cell-based; settings: Pseudomonas aeruginosa; P. aeruginosa PAO1; CAMHB, aerobic; duplicate; read-out: MIC
[23] = tested on: C. difficile isolate 20110973 (ribotype 106); experiment: MIC by broth microdilution; assay type: cell-based, Clostridium difficile; settings: Clostridioides difficile; isolate 20110973, ribotype 106; duplicate; read-out: MIC

CN[C@H](CC(C)C)C(=O)N[C@H]1C(=O)N[C@@H](CC(N)=O)C(=O)N[C@H]2C(=O)N[C@H]3C(=O)N[C@H](C(=O)N[C@H](C(=O)O)c4cc(O)cc(O)c4-c4cc3ccc4O)[C@H](O)c3ccc(c(Cl)c3)Oc3cc2cc(c3O[C@@H]2O[C@H](CO)[C@@H](O)[C@H](O)[C@H]2O[C@H]2C[C@](C)(N)[C@H](O)[C@H](C)O2)Oc2ccc(cc2Cl)[C@H]1O [Vancomycin, vancomycin hydrochloride hydrate]
MIC (P. nigrescens ATCC 33563): > 32 µg/mL
MIC [1]: 1 µg/mL
MIC [2]: 0.25 µg/mL
log killing of CD4118 stationary-phase cells (C. difficile strain 4118 [3]): < 3 log
MIC (L. plantarum ATCC 8014): > 32 µg/mL
MIC [4]: 0.5 µg/mL
MIC [5]: 0.5 to 1 µg/mL
MIC (S. epidermidis 1457): 2 µg/mL
MIC [6]: > 32 µg/mL
MIC [7]: 1 µg/mL
MIC [8]: 0.5 µg/mL
MIC [9]: 32 µg/mL
MIC [10]: 1 µg/mL
MIC [11]: 1 µg/mL
MIC [12]: 1 µg/mL
MIC [13]: 0.5 µg/mL
MIC (A. baumannii M2): > 32 µg/mL
MIC [14]: 0.5 µg/mL
MIC (P. distasonis ATCC 8503): > 32 µg/mL
MIC [15]: > 32 µg/mL
MIC C. difficile 4118 [16]: 2 µg/mL
MIC ([16]; Clostridioides difficile, ATCCBAA1870, read-out: MIC C. difficile 4118): 2 µg/mL
MIC [17]: 0.5 µg/mL
MIC (C. sporogenes ATCC 15579): 2 µg/mL
MIC [18]: 1 µg/mL
MIC (B. subtilis ATCC 6051): 0.13 µg/mL
MIC [19]: 0.5 to 1 µg/mL
MIC [20]: 0.5 µg/mL
MIC [21]: 0.5 µg/mL
MBC (C. difficile strain 4118 [22]; Clostridioides difficile, 4118, read-out: MBClog): 8 µg/mL
MBC (C. difficile strain 4118 [22]; Clostridioides difficile, 4118, read-out: MBCstat): > 32 µg/mL
log reduction of CD4118 stationary-phase cells (C. difficile strain 4118 [22]; at 32 μg/mL, 20–24 h): < 3 log
MIC (P. aeruginosa PAO1): > 32 µg/mL
MIC [23]: 2 µg/mL
